Source: patent US20210205322A1, “RICTOR-TARGETED THERAPY IN THE MANAGEMENT OF BRAIN METASTASES” (Albert Einstein College of Medicine, priority 2020, published 2021)
“Also recorded” adds a separate entry of the source.

Experiments:
[1] = system: RICTOR-amplified H23 lung cancer cells; assay: Transwell cell migration and invasion assay in H23 cells; assay type: cell-based; conditions: in vitro; FIG. 7C
Procedure: (§1) In vitro Cell Migration and Invasion Assay: The transwell assay was performed according to manufacturer's protocol (Corning, N.Y.). Briefly, the cells were starved for 24 hours and then seeded on the transwell insert (Corning, N.Y.) in 12-well plates. The bottom of the well contained medium with 10% FBS. After 24 hours, the bottom of the inserts were fixed with 70% ethanol and stained with 0.5% crystal violet. The cells were counted triplicate under microscope.
(§2) In the invasion assay, matrigel (0.8 mg/ml) layer was added on the transwell insert first. After the matrigel layer was solidified, the experiment was performed in the same way as the migration assay.

[2] = system: RICTOR-amplified H1703 lung cancer cells; assay: Transwell cell migration and invasion assay in H1703 cells; assay type: cell-based; conditions: in vitro; FIG. 7C
Procedure: as §1, §2

[3] = system: HCC827-R4
[4] = system: erlotinib-resistant HCC827 cell line (ER); assay: MTS cell viability and clonogenic survival assays in erlotinib-resistant HCC827 cells (ER); assay type: cell-based; conditions: Axl-overexpressed ER; FIG. 1I and 1J
Procedure: Cell Growth and Viability Assay: The MTS proliferation assay was performed as described in manufacture protocol (Promega, Wis., USA). Cells were seeded at a density of 2000 cells per well in 96-well plates. After incubating with drugs for 72 hours, MTS reagent was added and the absorbance was measured at 490 nm. Viable cell numbers were determined using the MTS assay kit according to the manufacturer's protocol.

[5] = system: HCC827 OE; conditions: RICTOR upregulation with doxycycline; FIG. 2C
Procedure: Next, it was determined whether RICTOR upregulation could result in EGFR TKI resistance. A doxycycline-inducible RICTOR upregulation model in HCC827 cells (HCC827 OE) was generated.

[6] = system: ER3-R4; assay: Western blot analysis (c-PARP) of osimertinib-treated ER3-R4 cells; assay type: cell-based; conditions: osimertinib-treated cells with RICTOR knockdown; osimertinib 0.5 μM; FIG. 4D
Procedure: (§3) Immunoblotting and Antibodies: All antibodies were purchased from Cell Signaling Technology (Boston, Mass.). Cell lysate was harvested using RIPA buffer and the supernatant was subjected for following steps after centrifugation. Proteins were subjected to 10% SDS-PAGE gel and transferred onto […] nitrocellulose membrane (Biorad, Calif., USA) for western blot analysis. After incubation with primary antibody overnight at 4° C., the membrane was washed and incubated with secondary antibodies. The final blots were developed with a chemiluminesence system (Promega, Wis., USA).
To evaluate whether RICTOR-induced Axl upregulation was a common resistant mechanism for EGFR TKIs, Axl signaling in osimertinib-treated ER3-R4 and HCC827 OE cells was examined. […] Taken together, RICTOR positively regulates EGFR TKI resistance by upregulating Axl expression, which seems to be a common resistance mechanism shared by EGFR TKIs.

[7] = system: HCC827 OE cells; assay: Western blot analysis (c-PARP) of osimertinib-treated HCC827 OE cells; assay type: cell-based; conditions: osimertinib-treated cells with RICTOR upregulation; osimertinib 50 nM; FIG. 4D
Procedure: Immunoblotting and Antibodies: All antibodies were purchased from Cell Signaling Technology (Boston, Mass.). Cell lysate was harvested using RIPA buffer and the supernatant was subjected for following steps after centrifugation. Proteins were subjected to 10% SDS-PAGE gel and transferred onto 0.45 μM nitrocellulose membrane (Biorad, Calif., USA) for western blot analysis. After incubation with primary antibody overnight at 4° C., the membrane was washed and incubated with secondary antibodies. The final blots were developed with a chemiluminesence system (Promega, Wis., USA).

[8] = system: PC9-R4; assay: Drug response by clonogenic survival assay in inducible RICTOR knockdown PC9-R4 cells; assay type: cell-based; conditions: for inhibitory effects on cell proliferation: RICTOR knockdown cells vs no knockdown
[9] = system: PC9 parental cells; assay: Cell growth assay, combined treatment of sapanisertib and EGFR TKIs; conditions: sapanisertib 5 nM combined with erlotinib, afatinib or osimertinib; FIG. 3C
Procedure: Clonogenic Survival Assay: Logarithmically growing cells were plated in triplicate. All drugs were added for 72 hours and withdrawn afterwards. After 10-14 days, colonies were fixed with 70% EtOH and stained with 0.5% crystal violet (Sigma Aldrich, St Louis, Mo.). Surviving colonies were defined as colonies containing >50 cells.

[10] = system: HCC827 OE cells; assay: Transwell cell migration and invasion assay in HCC827 OE cells; assay type: cell-based; conditions: migration and invasion promoted by RICTOR upregulation (doxycycline)
Procedure: as §1, §2

[11] = system: H23 lung cancer cells labeled with luciferase reporter gene; assay: In vivo metastasis assay, stereotactic brain injection model; design: species or system mouse
Excerpt: To further test whether RICTOR amplification affects in vivo metastasis, either the inducible H23-R4 or the parental H23 lung cancer cells labeled with luciferase reporter gene (H23-R4-Luc) were implanted in mouse brain stereotactically.

[12] = system: lung cancer cell; assay: Invasion and migration with AKT inhibitors; assay type: cell-based; conditions: for invasion and migration: AKT inhibitor added to inducible RICTOR knockdown; for lung cancer cell invasion and migration: AKT inhibitor alone, FIG. 10A-E
Procedure: as §1, §2
(§4) AKT is a downstream effector of the RICTOR-mTOCR2 pathway, to determine its role in RICTOR-mediated metastasis, the effects of two structurally different AKT inhibitors, AR-42 and ipatasertib were inestigated.

[13] = system: lung cancer cell; assay: Cell proliferation with AKT inhibitors; assay type: cell-based; conditions: 24-hour treatment
Excerpt: as §4

[14] = system: lung cancer cell; assay: Apoptosis (cleaved PARP) with AKT inhibitors; assay type: cell-based; conditions: for apoptosis: AKT inhibitor added to inducible RICTOR knockdown; for apoptosis (cleaved PARP): AKT inhibitor alone
Procedure: as §3, §4

[15] = system: ER cells; assay: ER mouse tumor xenograft model; assay type: in vivo, mice
Procedure: Xenograft Mouse Studies: Athymic mice (Envigo Laboratory, male, 6-8 weeks old) were inoculated subcutaneously with 5×10^6 NSCLC cells. After 2 days, mice were divided into a vehicle control (water) group and a doxycycline group, with 6 mice in each group. Doxycycline was administered by oral gavage: 100 mg/kg/day. The same volume of water was given to the control group. A total of 20 daily doses were administered in 4 weeks. […] Tumors were measured with calipers twice weekly and the size was calculated as length×width^2/2. The protocol was approved by the Institutional Animal Care and Use Committee.
The in vivo mouse tumor xenograft model was performed using ER cells.

[16] = system: lung cancer cell; assay: SDF-1α-induced invasion and migration (CXCR4 pathway); assay type: cell-based
Procedure: as §1, §2

Question: Which migration and invasion [1] does the source give for `Nc1cc(C(F)(F)F)c(-c2nc(N3CCOCC3)nc(N3CCOCC3)n2)cn1` [PQR309, 5-(4,6-dimorpholin-4-yl-1,3,5-triazin-2-yl)-4-(trifluoromethyl)pyridin-2-amine] here?
Answer: significantly reduced

Question: What about the migration and invasion [2] of the same compound?
Answer: significantly reduced

Question: `C=CC(=O)Nc1cc(Nc2nccc(-c3cn(C)c4ccccc34)n2)c(OC)cc1N(C)CCN(C)C` [osimertinib] was tested. Which “decrease of IC50 upon RICTOR knockdown” value [3] did it give?
Answer: > 10 fold

Question: What about the “inhibitory effects on cell proliferation” value [3] of the same compound?
Answer: higher inhibitory effects

Question: What about the “drug response of ER” value [4] of the same compound?
Answer: resistance to both inhibitors

Question: And the “resistance compared to parental HCC827 cells” value [5]?
Answer: more resistant

Question: What about the “apoptosis (c-PARP)” value [6] of the same compound?
Answer: more pronounced apoptosis

Question: And the apoptosis [7]?
Answer: less apoptosis

Question: What about the “inhibitory effects on cell proliferation” value [8] of the same compound?
Answer: higher inhibitory effects

Question: With `CNC(=O)c1cccc(-c2ccc3c(N4CCOC[C@@H]4C)nc(N4CCOC[C@@H]4C)nc3n2)c1` [AZD2014, 3-[2,4-bis[(3S)-3-methylmorpholin-4-yl]pyrido[2,3-d]pyrimidin-7-yl]-N-methylbenzamide] as the compound, how does the migration and invasion [1] read?
Answer: significantly reduced

Question: What about the migration and invasion [2] of the same compound?
Answer: significantly reduced

Question: `CC(C)n1nc(-c2ccc3oc(N)nc3c2)c2c(N)ncnc21` [TAK228, 5-(4-amino-1-propan-2-yl-3-pyrazolo[3,4-d]pyrimidinyl)-1,3-benzoxazol-2-amine] was tested. Which “sensitivity of EGFR TKIs in combined treatment” value [9] did it give?
Answer: significantly improved the sensitivity of all three inhibitors

Question: And the “cell migration and invasion” value [10]?
Answer: inhibited

Question: And the migration and invasion [1]?
Answer: significantly reduced

Question: And the migration and invasion [2]?
Answer: significantly reduced

Question: What about the “reduction of tumor growth in the brain” value ([11]; P<0.01, FIG. 8B) of the same compound?
Answer: approximately 75%

Question: And the near complete responses ([11]; after 4 weeks of daily oral lavage, 3 out 7)?
Answer: 43%

Question: What about the “tumor growth in the brain” value ([11]; result in words) of the same compound?
Answer: remarkably reduced the lung cancer growth in the brain; also recorded: significantly reduced tumor growth in the brain

Question: `CC(C)[C@H](C(=O)Nc1ccc(C(=O)NO)cc1)c1ccccc1` [AR-42] was tested. Which invasion and migration [12] did it give?
Answer: significantly further reduced

Question: And the “lung cancer cell invasion and migration” value [12]?
Answer: significantly decreased

Question: What about the “change in cell proliferation” value [13] of the same compound?
Answer: did not result in significant change

Question: What about the apoptosis [14] of the same compound?
Answer: more pronounced apoptosis

Question: And the “apoptosis (cleaved PARP)” value [14]?
Answer: increased apoptosis

Question: Which results are given for `C#Cc1cccc(Nc2ncnc3cc(OCCOC)c(OCCOC)cc23)c1` [erlotinib]?
Answer: expression of Axl in xenograft tumors ([15]; combination treatment (RICTOR knockdown and erlotinib), western blot of tumor lysate, FIG. 1H): lowest expression of Axl; tumor growth ([15]; combined treatment (RICTOR knockdown by doxycycline and erlotinib), vs either approach alone, P<0.05): markedly blocked tumor growth; tumor growth ([15]; erlotinib alone, four weeks of treatment, oral gavage daily): failed to inhibit tumor growth; inhibitory effects on cell proliferation [8]: higher inhibitory effects

Question: For SDF-1α, which migration and invasion ([16]; activation of the CXCR4 pathway by treatment with SDF-1α) is on record?
Answer: increased migration and invasion

Question: Which “SDF-1α-induced invasion and migration” value ([16]; FIG. 11B and C) does the source give for `c1cc(CN2CCCNCCNCCCNCC2)ccc1CN1CCCNCCNCCCNCC1` [AMD3100] here?
Answer: significantly reduced

Question: `CC(C)NC[C@@H](C(=O)N1CCN(c2ncnc3c2[C@H](C)C[C@H]3O)CC1)c1ccc(Cl)cc1` [ipatasertib] was tested. Which invasion and migration [12] did it give?
Answer: significantly further reduced

Question: What about the “lung cancer cell invasion and migration” value [12] of the same compound?
Answer: significantly decreased

Question: And the “change in cell proliferation” value [13]?
Answer: did not result in significant change

Question: What about the apoptosis [14] of the same compound?
Answer: more pronounced apoptosis

Question: What about the “apoptosis (cleaved PARP)” value [14] of the same compound?
Answer: increased apoptosis

Question: How did the “decrease of IC50 upon RICTOR knockdown” value ([8]; PC-9 cells, FIG. 3B) turn out when `CN(C)C/C=C/C(=O)Nc1cc2c(Nc3ccc(F)c(Cl)c3)ncnc2cc1O[C@H]1CCOC1` [afatinib] was run?
Answer: > 10 fold
